Data taken from patent publication US6083951A, “Aryl-substituted pyrimidine sulphonamide compounds as endothelin antagonists” (Zeneca Limited, priority 1994, dated 2000).

How the values were obtained:
[1] = system: guinea-pig isolated taenia coli; assay: Test B: inhibition of the relaxant response to endothelin-1 in isolated tissue; format: cell-based; settings: antagonism of endothelin-1 relaxation, pA2 from concentration ratio
Experimental: The endothelin receptor antagonist activity of compounds of formula I may be assessed in vitro in isolated tissues by their ability to inhibit the relaxant response to endothelin-1 in the guinea-pig isolated taenia coli. Guinea pigs of either sex and weight >250 g are killed by cervical dislocation and the caecum removed and placed in cold oxygenated Krebs solution. Strips of Taenia coli are dissected out and approximately 4 cm lengths set up for isotonic recording in a 20 ml organ bath containing oxygenated Krebs solution at 32° C. After a 90-120 minute equilibration period to allow the tissue to spontaneously develop an increased tone, a cumulative concentration-response curve (relaxation) is constructed to endothelin-1 (0.3-10 nM). The tissue is then washed for a period of at least 90 minutes before construction of a second concentration-response curve to endothelin-1 in the presence of the test compound. The test compound is added to the organ bath (at an initial concentration of 20 μM) at least 30 minutes before constructing the second concentration-response curve to endothelin-1. The endothelin-1 concentration ratio for each experiment is determined by comparing the most parallel portions of the control and drug treated concentration-response curves. From this a pA2 is calculated: pA2 =-log[molar drug concentration]+log[concentration ratio-1].

[2] = system: Human ETA or ETB receptors; assay: Test A: inhibition of [125I]-Endothelin-1 binding to MEL cell membranes expressing recombinant receptor; settings: [125I]-Endothelin-1 30 pM, receptor subtype (ETA or ETB) not stated
Text: The endothelin receptor antagonist activity of compounds of formula I may be assessed in vitro by their ability to inhibit binding of [^125 I]-Endothelin-1 to its receptors. Human ETA or ETB receptors (sub-types of the endothelin receptor) were expressed in Mouse Erythroleukemic Cells (MEL cells) by using standard molecular techniques (for example, as described by Sambrook J., Fritsch E. F. & Maniatis T. (1989) Molecular Cloning: A Laboratory Manual, 2nd Edition, Cold Spring Harbor Press, U.S.A.). cDNA sequences encoding the human ETA and ETB receptor (Hosoda K. et al (1991), FEBS Lett., 287, 23-26 and Sakamoto A. et al, (1991), Biochem. Biophys Res. Comm., 178, 656-663) are subcloned into pBluescript vector followed by insertion into the MEL cell expression vector pEV as described by Needham et al (1992), Nuc. Acids Res., 20, 997-1003. […]
[^125 I]-Endothelin-1 binding to MEL cell membranes was measured in incubation buffer containing 50 mM Tris HCl, 1 mM CaCl2, 0.05% polyoxyethylenesorbitan monolaurate, 0.1% Bovine Serum Albumin (BSA), 0.02% sodium azide pH 7.4 at 30° C. after 180 minutes incubation. […] Nonspecific binding was measured in the presence of 100 nM unlabelled Endothelin-1. […] The filter discs were punched out and counted in a gamma counter. Compounds are tested in triplicate over a range of concentrations and IC50 (or pIC50) values calculated.

- pIC50 in test A [2]: 6.7
Compound: CN(C)c1cccc2c(S(=O)(=O)Nc3ccc(Cl)nn3)cccc12 [Example 1, 5-(dimethylamino)-N-(6-chloro-3-pyridazinyl)-1-naphthalenesulphonamide]
- pA2 in test B [1]: 6.8
